Tested on: genes predictive for the anti-inflammatory macrolide effect
Assay: Genes statistically predictive of Clari response: differentially expressed with Clari but not the inactive macrolides MAA or Josa (Appendix E)
Assay type: cell-based
Text: In the case of the above-mentioned (i) related to arachidonic acid biosynthesis, specifically, methods of the embodiment involve assaying whether a test macrolide alters biosynthesis of arachidonic acid, alters the expression or activities of enzymes involved in the biosynthesis or activation of arachidonic acid (e.g., arachidonic acid CoA synthetase, delta-6 desaturase, fatty acid elongase, and delta-5 desaturase, AA-related genes in Tables 2 and 3), or alters the expression of genes identified as predictive for the anti-inflammatory macrolide effect (Appendix E). Assays in which arachidonic acid or gene expression or enzymatic activity is detected can be carried out after contacting a cell with a test macrolide. Any cell line that secretes prostaglandin or produces arachidonic acid can be used. Epithelial and macrophages lines (e.g., A549 or THP-1) are suitable for this purpose; other cell lines can be identified by carrying out assays such as those described in the specific Examples, below. Alternatively, screening assays can be carried out after adding a test macrolide to an in vitro cell system (e.g., a cellular extract or liver microsome preparation) or an in vitro enzyme assay system.

CC[C@H]1OC(=O)[C@H](C)[C@@H](O[C@H]2C[C@@](C)(OC)[C@@H](O)[C@H](C)O2)[C@H](C)[C@@H](O[C@@H]2O[C@H](C)C[C@H](N(C)C)[C@H]2O)[C@](C)(OC)C[C@@H](C)C(=O)[C@H](C)[C@@H](O)[C@]1(C)O [clarithromycin]
group mean, gene UNG (SpotID 48807, MAA and Josa vs. Clari): 0.91 | group mean, gene TUBB (SpotID 48914, MAA and Josa vs. Clari): 0.83 | group mean, gene ITGAE (SpotID 48921, MAA and Josa vs. Clari): 0.99 | mean group, ITGAE (SpotID 48921, pooled group mean): 0.97 | group mean, gene P4HA2 (SpotID 48971, MAA and Josa vs. Clari): 1.48 | group mean, gene FADS1 (SpotID 48998, MAA and Josa vs. Clari): 1.44 | group mean, gene PRSS25 (SpotID 49006, MAA and Josa vs. Clari): 1.17 | mean group, PRSS25 (SpotID 49006, pooled group mean): 1.14 | group mean, gene TM9SF2 (SpotID 49007, MAA and Josa vs. Clari): 1.20 | mean group, TM9SF2 (SpotID 49007, pooled group mean): 1.18 | group mean, gene BBC3 (SpotID 49013, MAA and Josa vs. Clari): 1.07 | group mean, gene BNIP3L (SpotID 49028, MAA and Josa vs. Clari): 1.25 | mean group, BNIP3L (SpotID 49028, pooled group mean): 1.20 | group mean, gene GSK3B (SpotID 49032, MAA and Josa vs. Clari): 1.23 | group mean, gene GLUD1 (SpotID 49047, MAA and Josa vs. Clari): 0.95 | group mean, gene SERPINB1 (SpotID 49117, MAA and Josa vs. Clari): 0.84 | mean group, SERPINB1 (SpotID 49117, pooled group mean): 0.88 | group mean, gene PPIB (SpotID 49142, MAA and Josa vs. Clari): 1.18 | group mean, gene PIK3R3 (SpotID 49144, MAA and Josa vs. Clari): 1.15 | group mean, gene ARTS-1 (SpotID 49155, MAA and Josa vs. Clari): 0.81 | mean group, ARTS-1 (SpotID 49155, pooled group mean): 0.86 | group mean, gene LGALS3 (SpotID 49163, MAA and Josa vs. Clari): 1.23 | group mean, gene RRS1 (SpotID 49169, MAA and Josa vs. Clari): 0.88 | mean group, RRS1 (SpotID 49169, pooled group mean): 0.93 | group mean, gene YAF2 (SpotID 49172, MAA and Josa vs. Clari): 0.90 | group mean, gene NEDD8 (SpotID 49177, MAA and Josa vs. Clari): 1.06 | group mean, gene SRRM1 (SpotID 49183, MAA and Josa vs. Clari): 0.81 | group mean, gene FUCA1 (SpotID 49197, MAA and Josa vs. Clari): 1.13 | group mean, gene APOE (SpotID 49233, MAA and Josa vs. Clari): 1.03 | mean group, APOE (SpotID 49233, pooled group mean): 1.01 | mean group, TNFRSF10B (SpotID 49272, pooled group mean): 1.08 | group mean, gene PPIB (SpotID 49314, MAA and Josa vs. Clari): 1.18 | mean group, PPIB (SpotID 49314, pooled group mean): 1.16 | group mean, gene YWHAH (SpotID 49318, MAA and Josa vs. Clari): 0.95 | mean group, YWHAH (SpotID 49318, pooled group mean): 0.97 | group mean, gene HNRPA3 (SpotID 49347, MAA and Josa vs. Clari): 0.71 | group mean, gene NCBP2 (SpotID 49352, MAA and Josa vs. Clari): 1.03 | group mean, gene TEB4 (SpotID 49360, MAA and Josa vs. Clari): 0.88 | mean group, TEB4 (SpotID 49360, pooled group mean): 0.94 | group mean, gene ABCE1 (SpotID 49364, MAA and Josa vs. Clari): 0.92 | group mean, gene EIF3S9 (SpotID 49373, MAA and Josa vs. Clari): 0.94 | mean group, SpotID 49374 (SpotID 49374 (gene symbol not given), pooled group mean): 1.03 | group mean, SpotID 49374 (gene symbol not given) (SpotID 49374, MAA and Josa vs. Clari): 1.04 | group mean, gene SLC35A2 (SpotID 49380, MAA and Josa vs. Clari): 1.11 | group mean, gene PPP3CB (SpotID 49391, MAA and Josa vs. Clari): 0.92 | group mean, gene TRRAP (SpotID 49435, MAA and Josa vs. Clari): 0.89 | mean group, TRRAP (SpotID 49435, pooled group mean): 0.92 | group mean, gene SRC (SpotID 49446, MAA and Josa vs. Clari): 1.17 | mean group, SRC (SpotID 49446, pooled group mean): 1.14 | group mean, gene LOC55871 (SpotID 49481, MAA and Josa vs. Clari): 1.05 | group mean, gene VTN (SpotID 49490, MAA and Josa vs. Clari): 0.91 | mean group, VTN (SpotID 49490, pooled group mean): 0.94 | group mean, gene MATN2 (SpotID 49511, MAA and Josa vs. Clari): 1.17 | group mean, gene GC20 (SpotID 49512, MAA and Josa vs. Clari): 1.16 | group mean, gene UBC (SpotID 49514, MAA and Josa vs. Clari): 1.11 | mean group, UBC (SpotID 49514, pooled group mean): 1.09 | group mean, gene AP1G2 (SpotID 49524, MAA and Josa vs. Clari): 0.97 | mean group, AP1G2 (SpotID 49524, pooled group mean): 0.92 | group mean, gene GNPI (SpotID 49546, MAA and Josa vs. Clari): 1.16 | mean group, LOC54543 (SpotID 49577, pooled group mean): 1.02 | group mean, gene PSMC4 (SpotID 49580, MAA and Josa vs. Clari): 0.99 | mean group, CSTF3 (SpotID 49606, pooled group mean): 1.07 | group mean, gene POU4F1 (SpotID 49608, MAA and Josa vs. Clari): 1.05 | group mean, gene CLN2 (SpotID 49618, MAA and Josa vs. Clari): 1.15 | mean group, CLN2 (SpotID 49618, pooled group mean): 1.12 | group mean, gene FGF2 (SpotID 49649, MAA and Josa vs. Clari): 0.76 | group mean, gene MAP3K10 (SpotID 49650, MAA and Josa vs. Clari): 1.16 | mean group, BTN3A2 (SpotID 49673, pooled group mean): 1.11 | mean group, SERPINF1 (SpotID 49679, pooled group mean): 1.09 | group mean, gene GSK3B (SpotID 49688, MAA and Josa vs. Clari): 1.26 | group mean, gene CAT (SpotID 49698, MAA and Josa vs. Clari): 1.08 | group mean, gene PCYT2 (SpotID 49705, MAA and Josa vs. Clari): 1.24 | group mean, gene HNRPD (SpotID 49715, MAA and Josa vs. Clari): 0.88 | group mean, gene GSK3B (SpotID 49735, MAA and Josa vs. Clari): 1.13 | group mean, gene CHAF1B (SpotID 49737, MAA and Josa vs. Clari): 0.84 | mean group, CHAF1B (SpotID 49737, pooled group mean): 0.88 | group mean, gene USF2 (SpotID 49744, MAA and Josa vs. Clari): 1.07 | group mean, gene RPLP0 (SpotID 49747, MAA and Josa vs. Clari): 1.09
